Assay: Stability of the solid form upon storage
Assay type: physicochemical
Conditions: storage at ambient conditions

For C[C@@H]1CC2C3C[C@H](F)C4=CC(=O)C=C[C@]4(C)[C@@]3(F)[C@@H](O)C[C@]2(C)[C@@]1(OC(=O)c1ccco1)C(=O)SCC#CCOC(=O)CC(C)(C)F (stereo partly drawn) [amorphous form, S-[4-(3-fluoro-3-methylbutyryloxy)but-2-ynyl]6α,9α-difluoro-17α-(furan-2-yl)carbonyloxy-11β-hydroxy-16α-methyl-3-oxoandrosta-1,4-diene-17β-carbothioate], the stability upon storage was “unstable upon storage even at ambient conditions”.

Source: patent US10179800B2, “Crystalline forms of S-[4-(3-fluoro-3-methylbutyryloxy)but-2-ynyl] 6-α,9-α-difluoro-17-α-(furan-2-yl)carbonyloxy-11-β-hydroxy-16-α-methyl-3-oxoandrosta-1,4-diene-17-β-carbothioate” (Sun Pharma Advanced Research Company Limited, priority 2015, dated 2019)
